Source: patent publication US20070225284A1, “Inhibitors of soluble adenylate cyclase” (priority 2006, published 2007)

Experiments:
[1] = target: soluble, sperm-specific adenylate cyclase (sAC) (Homo sapiens, UniProt Q96PN6); assay: sAC-Assay (HTRF cAMP detection); type: biochemical; conditions: read-out: IC50 (inhibition of the soluble adenylate cyclase)
Source text: In a suitable buffer system, the soluble, sperm-specific adenylate cyclase catalyzes the reaction of adenosine triphosphate (ATP) to cyclic adenosine monophosphate (cAMP) and pyrophosphate. Free cAMP that is generated in this way is then used in a competitive detection process, in which the binding of a europium kryptate (Eu[K])-labeled anti-cAMP antibody (anti cAMP-Eu[K]-AK) to a cAMP-molecule-labeled, modified allophycocyanine-1 molecule (cAMP-XL665) is prevented. In the absence of exogenic cAMP, after excitation at 335 nm, it results in a fluorescence resonance energy transfer (FRET) between the anti cAMP-Eu[K]-AK (FRET-donor) and the cAMP-XL665 molecule (FRET-acceptor). This process is quantified at different times (time-resolved) based on the emission of FRET-acceptor XL665 (665 nm and 620 nm). A signal drop (measured as a wave ratio; calculation formula: [(E665 nm/E620 nm)×10000]) can be attributed to the presence of cAMP and thus to the activity of sAC.
First, 1.5 μl of the test substance (in 30% DMSO), only 30% DMSO in the solvent controls, is introduced per recess in a 384-hole test plate (polystyrene; 384, NV). […]
After an additional incubation of 90 minutes at room temperature, the HTRF result is measured either on the Packard Discovery or with the RubiStar HTRF measuring device (Delay: 50 μs; Integration time: 400 μs).

[2] = statement on known sAC inhibitors; cited from earlier work

Sequence of soluble, sperm-specific adenylate cyclase (sAC) (Q96PN6 whole entry): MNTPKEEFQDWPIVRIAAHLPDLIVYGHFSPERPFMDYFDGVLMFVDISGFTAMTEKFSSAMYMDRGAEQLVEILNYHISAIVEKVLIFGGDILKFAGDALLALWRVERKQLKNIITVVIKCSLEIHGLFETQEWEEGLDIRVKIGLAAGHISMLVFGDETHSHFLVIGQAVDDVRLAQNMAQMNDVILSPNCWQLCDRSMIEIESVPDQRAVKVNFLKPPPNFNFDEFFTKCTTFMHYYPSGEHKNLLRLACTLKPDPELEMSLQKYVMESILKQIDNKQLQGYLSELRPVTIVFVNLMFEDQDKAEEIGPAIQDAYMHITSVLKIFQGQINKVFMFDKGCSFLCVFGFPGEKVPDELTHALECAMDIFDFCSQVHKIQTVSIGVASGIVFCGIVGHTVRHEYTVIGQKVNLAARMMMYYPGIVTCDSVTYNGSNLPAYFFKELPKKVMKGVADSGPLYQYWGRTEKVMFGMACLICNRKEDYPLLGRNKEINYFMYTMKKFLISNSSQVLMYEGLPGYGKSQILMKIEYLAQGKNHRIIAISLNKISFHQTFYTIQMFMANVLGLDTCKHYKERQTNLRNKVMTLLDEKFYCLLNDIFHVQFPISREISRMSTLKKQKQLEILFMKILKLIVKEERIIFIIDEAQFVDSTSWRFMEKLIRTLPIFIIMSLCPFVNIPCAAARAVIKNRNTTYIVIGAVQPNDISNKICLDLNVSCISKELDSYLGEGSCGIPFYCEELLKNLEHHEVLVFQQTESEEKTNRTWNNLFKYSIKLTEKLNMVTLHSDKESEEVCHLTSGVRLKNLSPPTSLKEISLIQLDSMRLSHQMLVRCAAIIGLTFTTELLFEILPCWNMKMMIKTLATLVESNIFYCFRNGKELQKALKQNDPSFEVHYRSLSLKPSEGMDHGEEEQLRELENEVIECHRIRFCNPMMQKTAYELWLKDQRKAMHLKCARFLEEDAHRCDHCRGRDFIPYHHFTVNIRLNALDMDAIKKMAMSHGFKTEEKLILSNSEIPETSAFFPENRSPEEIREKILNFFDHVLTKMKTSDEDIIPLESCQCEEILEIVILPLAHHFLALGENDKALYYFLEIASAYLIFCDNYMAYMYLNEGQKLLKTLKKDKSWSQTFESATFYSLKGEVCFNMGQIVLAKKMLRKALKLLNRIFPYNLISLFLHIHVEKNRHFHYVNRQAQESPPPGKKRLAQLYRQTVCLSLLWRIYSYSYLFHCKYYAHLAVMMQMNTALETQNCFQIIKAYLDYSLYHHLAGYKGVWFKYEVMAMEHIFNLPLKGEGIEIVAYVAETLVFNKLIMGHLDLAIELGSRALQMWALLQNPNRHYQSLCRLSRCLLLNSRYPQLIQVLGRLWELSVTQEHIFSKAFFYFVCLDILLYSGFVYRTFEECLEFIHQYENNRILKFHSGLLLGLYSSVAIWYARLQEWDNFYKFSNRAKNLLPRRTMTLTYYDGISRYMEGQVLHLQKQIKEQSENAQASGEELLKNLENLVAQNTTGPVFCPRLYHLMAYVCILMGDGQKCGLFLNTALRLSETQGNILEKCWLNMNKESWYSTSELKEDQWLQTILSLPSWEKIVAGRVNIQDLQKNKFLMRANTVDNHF

Compound | IC50 [1] [µM] | toxicity [2]
CN(c1ccc2[nH]c(C(=O)NCCN3CCOCC3)c(-c3ccccc3)c2c1)S(=O)(=O)c1ccc(C(C)(C)C)cc1 | 2.6 | –
CC(O)CNC(=O)c1[nH]c2ccc(N(C)S(=O)(=O)c3ccc(C(C)(C)C)cc3)cc2c1-c1ccccc1 (racemic) [Example 4, (±)-5-[(4-tert-Butyl-phenylsulfonyl)-methyl-amino]-3-phenyl-1H-indole-2-carboxylic acid-(2-hydroxy-propyl)-amide] | 1.3 | –
Cc1cc2c(C(C)C)c(O)c(O)c(C=O)c2c(O)c1-c1c(C)cc2c(C(C)C)c(O)c(O)c(C=O)c2c1O [gossypol] | – | inherently toxic
